Measurements as given in US11802120B2, “Fused cyclic urea derivatives as CRHR2 antagonist” (RaQualia Pharma Inc., priority 2018, dated 2023).
pIC50: −log10 of the molar value.

Target: T1, human CRHR2-alpha (Homo sapiens, UniProt Q13324)
T1 sequence (Q13324 1-411): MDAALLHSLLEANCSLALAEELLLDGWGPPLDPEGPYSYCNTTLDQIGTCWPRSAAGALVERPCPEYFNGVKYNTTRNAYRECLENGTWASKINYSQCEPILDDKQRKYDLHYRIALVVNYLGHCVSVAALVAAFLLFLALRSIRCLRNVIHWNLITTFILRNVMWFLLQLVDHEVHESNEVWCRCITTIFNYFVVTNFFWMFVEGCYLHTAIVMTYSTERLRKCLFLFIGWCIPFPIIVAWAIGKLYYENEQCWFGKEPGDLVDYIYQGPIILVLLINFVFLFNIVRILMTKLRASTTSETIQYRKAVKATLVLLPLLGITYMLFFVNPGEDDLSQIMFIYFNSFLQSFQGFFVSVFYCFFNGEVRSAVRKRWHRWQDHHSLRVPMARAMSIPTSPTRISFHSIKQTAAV
Test: cAMP functional assay for human CRHR2 (LANCE Ultra cAMP, TR-FRET)
Assay type: cell-based
Details: CHO-K1 cells expressing human CRHR2-alpha, agonist human urocortin2 at EC80, cAMP; read-out: IC50 against CRHR2
Summary of the method: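 CHO-K1 cells stably expressing each receptor, serum-starved and cryopreserved, were preincubated with compound 30 min at 25° C in HBSS buffer with 0.5 mM IBMX, pH 7.4, then stimulated 30 min with EC80 agonist (urocortin2 for CRHR2, CRF for CRHR1). cAMP read by TR-FRET; IC50 from percent-inhibition curves.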

pIC50, > 6.52:
COc1ccccc1C(=O)Cn1c(=O)n(C[C@H]2CC[C@H](NC(=O)c3cc(Cl)cnc3C)CC2)c2ccccc21 [Example 10, 5-chloro-N-((1r,4r)-4-((3-(2-(2-methoxyphenyl)-2-oxoethyl)-2-oxo-2,3-dihydro-1H-benzo[d]imidazol-1-yl)methyl)cyclohexyl)-2-methylnicotinamide]
O=C(N[C@H]1CC[C@H](Cn2c(=O)n(-c3ccnc(N4CCNC4=O)c3)c3ccccc32)CC1)c1cc(Cl)cnc1C(F)F [Example 691, 5-chloro-2-(difluoromethyl)-N-((1r,4r)-4-((2-oxo-3-(2-(2-oxoimidazolidin-1-yl)pyridin-4-yl)-2,3-dihydro-1H-benzo [d]imidazol-1-yl)methyl)cyclo-hexyl)nicotinamide]
N#Cc1ccncc1-n1c(=O)n(C[C@H]2CC[C@H](NC(=O)c3cc(Cl)cnc3C(F)F)CC2)c2ccccc21 [Example 373, 5-chloro-N-((1r,4r)-4-((3-(4-cyanopyridin-3-yl)-2-oxo-2,3-dihydro-1H-benzo[d]imidazol-1-yl)methyl)cyclohexyl)-2-(difluoromethyl)nicotinamide]
CCn1nnc2cc(-n3c(=O)n(C[C@H]4CC[C@H](NC(=O)c5cc(Cl)cnc5C)CC4)c4ccccc43)ccc21 [Example 304, 5-chloro-N-((1r,4r)-4-((3-(1-ethyl-1H-benzo[d][1,2,3]triazol-5-yl)-2-oxo-2,3-dihydro-1H-benzo[d]imidazol-1-yl)methyl)cyclo-hexyl)-2-methylnicotinamide]
O=C(N[C@H]1CC[C@H](Cn2c(=O)n(-c3ccccc3Cl)c3cccnc32)CC1)c1cc(Cl)cnc1C(F)F [Example 630, 5-chloro-N-((1r,4r)-4-((1-(2-chlorophenyl)-2-oxo-1H-imidazo[4,5-b]pyridin-3(2H)-yl)methyl)cyclohexyl)-2-(difluoromethyl)nicotinamide]
Cc1ncc(Cl)cc1C(=O)N[C@H]1CC[C@H](Cn2c(=O)n(-c3cccc(-c4cn[nH]c4)c3)c3ccccc32)CC1 [Example 696, N-((1r,4r)-4-((3-(3-(1H-pyrazol-4-yl)phenyl)-2-oxo-2,3-dihydro-1H-benzo[d]imidazol-1-yl)methyl)cyclohexyl)-5-chloro-2-methylnicotinamide]
COCCOc1ccc(-n2c(=O)n(C[C@H]3CC[C@H](NC(=O)c4cc(Cl)cnc4C(F)F)CC3)c3ccccc32)cn1 [Example 477, 5-chloro-2-(difluoromethyl)-N-((1r,4r)-4-((3-(6-(2-methoxy-ethoxy)pyridin-3-yl)-2-oxo-2,3-dihydro-1H-benzo[d]imidazol-1-yl)methyl)cyclohexyl) nicotinamide]
COCCOc1ccc(-n2c(=O)n(C[C@H]3CC[C@H](NC(=O)c4cc(Cl)cnc4C)CC3)c3ccccc32)cn1 [Example 417, 5-chloro-N-((1r,4r)-4-((3-(6-(2-methoxyethoxy)pyridin-3-yl)-2-oxo-2,3-dihydro-1H-benzo[d]imidazol-1-yl)methyl)cyclohexyl)-2-methylnicotinamide]
O=C(N[C@H]1CC[C@H](Cn2c(=O)n(-c3ccccc3Cl)c3ncccc32)CC1)c1cc(Cl)cnc1C(F)(F)F [Example 288, 5-chloro-N-((1r,4r)-4-((3-(2-chlorophenyl)-2-oxo-2,3-dihydro-1H-imidazo[4,5-b]pyridin-1-yl)methyl)cyclo-hexyl)-2-(trifluoromethyl) nicotinamide]
CCn1nc2ccccc2c1C(=O)N[C@H]1CC[C@H](Cn2c(=O)n(-c3ccc(OC)cc3)c3ccccc32)CC1 [Example 37, 2-ethyl-N-((1r,4r)-4-((3-(4-methoxyphenyl)-2-oxo-2,3-dihydro-1H-benzo[d]imidazol-1-yl)methyl)cyclohexyl)-2H-indazole-3-carboxamide]
O=C(N[C@H]1CC[C@H](Cn2c(=O)n(-c3ccncc3Cl)c3ccccc32)CC1)c1cc(Cl)cnc1C(F)(F)F [Example 334, 5-chloro-N-((1r,4r)-4-((3-(3-chloropyridin-4-yl)-2-oxo-2,3-dihydro-1H-benzo[d]imidazol-1-yl)methyl)cyclo-hexyl)-2-(trifluoromethyl) nicotinamide]
Cc1ncc(Cl)cc1C(=O)N[C@H]1CC[C@H](Cn2c(=O)n(-c3ccncc3C(F)(F)F)c3ccccc32)CC1 [Example 320, 5-chloro-2-methyl-N-((1r,4r)-4-((2-oxo-3-(3-(trifluoro-methyl)pyridin-4-yl)-2,3-dihydro-1H-benzo[d]imidazol-1-yl)methyl)cyclohexyl) nicotinamide]
C[C@H](O)C(=O)Nc1ccc(-n2c(=O)n(C[C@H]3CC[C@H](NC(=O)c4cc(Cl)cnc4C(F)F)CC3)c3ccccc32)cn1 [Example 671, 5-chloro-2-(difluoromethyl)-N-((1S,4r)-4-((3-(6-((S)-2-hydroxypropanamido)pyridin-3-yl)-2-oxo-2,3-dihydro-1H-benzo[d]imidazol-1-yl)methyl)cyclohexyl)nicotinamide]
Cc1ncc(Cl)cc1C(=O)N[C@H]1CC[C@H](Cn2c(=O)n(-c3ccc(NC4CC4)nc3)c3ccccc32)CC1 [Example 101, 5-chloro-N-((1r,4r)-4-((3-(6-(cyclopropylamino)pyridin-3-yl)-2-oxo-2,3-dihydro-1H-benzo[d]imidazol-1-yl)methyl)cyclohexyl)-2-methylnicotinamide]
CNC(=O)c1ccc(-n2c(=O)n(C[C@H]3CC[C@H](NC(=O)c4cc(Cl)cnc4C4CCC4)CC3)c3ccccc32)cn1 [Example 322, 5-(3-(((1r,4r)-4-(5-chloro-2-cyclobutylnicotinamido)cyclohexyl)methyl)-2-oxo-2,3-dihydro-1H-benzo[d]imidazol-1-yl)-N-methyl-picolinamide]
Cc1ncc(Cl)cc1C(=O)N[C@H]1CC[C@H](Cn2c(=O)n(-c3cnc4cccnc4c3)c3ccccc32)CC1 [Example 442, N-((1r,4r)-4-((3-(1,5-naph-thyridin-3-yl)-2-oxo-2,3-dihydro-1H-benzo[d]imidazol-1-yl)methyl)cyclo-hexyl)-5-chloro-2-methyl-nicotinamide]
N#Cc1cccnc1-n1c(=O)n(C[C@H]2CC[C@H](NC(=O)c3cc(Cl)cnc3C(F)F)CC2)c2ccccc21 [Example 375, 5-chloro-N-((1r,4r)-4-((3-(3-cyanopyridin-2-yl)-2-oxo-2,3-dihydro-1H-benzo[d]imidazol-1-yl)methyl)cyclohexyl)-2-(difluoromethyl)nicotinamide]
Cc1ncc(Cl)cc1C(=O)N[C@H]1CC[C@H](Cn2c(=O)n(-c3cnc4c(c3)OCCN4C)c3ccccc32)CC1 [Example 160, 5-chloro-2-methyl-N-((1r,4r)-4-((3-(4-methyl-3,4-dihydro-2H-pyrido[3,2-b][1,4]oxazin-7-yl)-2-oxo-2,3-dihydro-1H-benzo [d]imidazol-1-yl)methyl)cyclo-hexyl)nicotinamide]
Cc1ncc(Cl)cc1C(=O)N[C@H]1CC[C@H](Cn2c(=O)n(-c3ccc4c(C)nn(C)c4c3)c3ccccc32)CC1 [Example 191, 5-chloro-N-((1r,4r)-4-((3-(1,3-dimethyl-1H-indazol-6-yl)-2-oxo-2,3-dihydro-1H-benzo[d]imidazol-1-yl)methyl)cyclohexyl)-2-methylnicotinamide]
Cc1ncc(Cl)cc1C(=O)N[C@H]1CC[C@H](Cn2c(=O)n(-c3ccc(-c4cccnc4)nc3)c3ccccc32)CC1 [Example 201, N-((1r,4r)-4-((3-([2,3′-bipyridin]-5-yl)-2-oxo-2,3-dihydro-1H-benzo[d]imidazol-1-yl)methyl)cyclohexyl)-5-chloro-2-methylnicotinamide]
CNC(=O)c1ncc(-n2c(=O)n(C[C@H]3CC[C@H](NC(=O)c4cc(Cl)cnc4C(F)F)CC3)c3ccccc32)cc1Cl [Example 555, 3-chloro-5-(3-(((1r,4r)-4-(5-chloro-2-(difluoromethyl)nicotinamido)cyclohexyl)methyl)-2-oxo-2,3-dihydro-1H-benzo[d]imidazol-1-yl)-N-methylpicolinamide]
Cc1ncc(Cl)cc1C(=O)N[C@H]1CC[C@H](Cn2c(=O)n(-c3ccc(OC4COC4)nc3)c3ccccc32)CC1 [Example 140, 5-chloro-2-methyl-N-((1r,4r)-4-((3-(6-(oxetan-3-yloxy)pyridin-3-yl)-2-oxo-2,3-dihydro-1H-benzo[d]imidazol-1-yl)methyl)cyclohexyl)nicotinamide]
O=C(N[C@H]1CC[C@H](Cn2c(=O)n(Cc3ccncc3)c3ccccc32)CC1)c1cc(Cl)cnc1C(F)(F)F [Example 280, 5-chloro-N-((1r,4r)-4-((2-oxo-3-(pyridin-4-ylmethyl)-2,3-dihydro-1H-benzo[d]imidazol-1-yl)methyl)cyclohexyl)-2-(trifluoromethyl)nicotinamide]
